# Patent EP1099690A1, “MONOCYCLIC $g(b)-LACTAM COMPOUNDS AND CHYMASE INHIBITORS CONTAINING THE SAME” (SHIONOGI & CO., LTD., priority 1998, dated 2000)
# Target: T1, human chymase (Homo sapiens, UniProt P23946)
# T1 sequence (P23946 22-247): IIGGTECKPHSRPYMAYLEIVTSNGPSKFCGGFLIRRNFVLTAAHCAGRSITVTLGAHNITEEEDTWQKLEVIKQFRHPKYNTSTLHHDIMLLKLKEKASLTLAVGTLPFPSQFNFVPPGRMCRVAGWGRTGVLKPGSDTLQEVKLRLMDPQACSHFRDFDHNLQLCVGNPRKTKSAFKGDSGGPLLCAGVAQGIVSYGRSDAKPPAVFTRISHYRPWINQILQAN
# Experiment: Chymase inhibitory activity (Suc-Ala-Ala-Pro-Phe-pNA substrate, absorption 405 nm)
# Type: biochemical
# Conditions: purified human chymase, 30 minutes at 37 °C preincubation, substrate 0.5 mM
# Description: Compound (I) was dissolved in dimethylsulfoxide (DMSO) at 10^-2 M. Concentration of DMSO for activity measurement was 1 %.
# Compound (I) dissolved in DMSO and purified human chymase (Takai et al., Clinica Chimica Acta 265, 1997, 13-20) were added to a buffer (0.1M Tris-HCl, 1.8M NaCl pH8.0). After the mixture was treated for 30 minutes at 37 °C, Suc-Ala-Ala-Pro-Phe-pNA (BACHEM Feinchemikalien AG) was added at 0.5 mM as a substrate and the mixture was enzymatically reacted at 37 °C.
# After the reaction, the absorption intensity (405 nm) of the solution was measured to calculate the inhibitory rate.
row,SMILES,IC50 [nM]
1,C[C@@H](NC(=O)N1C(=O)[C@@H](Cc2ccccc2)[C@@H]1Oc1ccc(C(=O)Nc2ccccc2)cc1)c1ccccc1 [Compound I-46],31
2,CCOc1ccccc1C[C@@H]1C(=O)N(C(=O)NC(c2ccccc2)c2ccccc2)[C@H]1Oc1ccc(C(=O)OCCN2CCOCC2)cc1 [Compound I-150],5.4
3,C[C@@H](NC(=O)N1C(=O)[C@@H](Cc2ccccc2)[C@@H]1Oc1ccc(CC(=O)N2CCN(C)CC2)cc1)c1ccccc1 [Compound I-50],1.13
4,CCCC(NC(=O)N1C(=O)[C@@H](Cc2ccccc2OC)[C@@H]1Oc1ccc(C(=O)N2CCC(N3CCCCC3)CC2)cc1)c1ccc2c(c1)OCO2 (stereo partly shown) [Compound I-121],0.29
5,C[C@H](NC(=O)N1C(=O)[C@H](Cc2ccccc2)[C@H]1Oc1ccc(C(=O)N2CCN(C)CC2)cc1)c1ccccc1 [Compound I-89],18.5
6,C[C@@H](NC(=O)N1C(=O)[C@@H](Cc2ccccc2)[C@@H]1Oc1cccc(C(=O)O)c1)c1ccccc1 [Compound I-55],17
7,C[C@@H](NC(=O)N1C(=O)[C@@H](Cc2ccccc2)[C@H]1Oc1ccc(C(=O)OCc2ccccc2)cc1)c1ccccc1 [Compound I-69],16.2
8,C[C@@H](NC(=O)N1C(=O)[C@@H](Cc2ccccc2)[C@H]1Sc1ccccc1)c1ccccc1 [Compound I-85],2.4
9,COc1ccccc1C[C@@H]1C(=O)N(C(=O)NC(c2ccccc2)c2ccccc2)[C@H]1Oc1ccc(C(=O)O)cc1 [Compound I-126],2.95
10,C[C@@H](NC(=O)N1C(=O)[C@@H](Cc2ccccc2)[C@@H]1Oc1ccc(C(=O)N(C)CCN(C)C)cc1)c1ccccc1 [Compound I-38],2.2
11,CCC1(Cc2ccccc2)C(=O)N(C(=O)NC(C)c2ccccc2)C1Oc1ccc(C(=O)N2CCN(C)CC2)cc1 (stereo not shown) [Compound I-173],190
12,COc1ccccc1C[C@@H]1C(=O)N(C(=O)NC2(c3ccccc3)CC2)[C@H]1Oc1ccc(C(=O)O)cc1 [Compound I-125],19
13,CCN(Cc1ccccc1)C(=O)c1ccc(O[C@@H]2[C@H](Cc3ccccc3)C(=O)N2C(=O)N[C@H](C)c2ccccc2)cc1 [Compound I-70],1.28
14,COc1ccccc1C[C@@H]1C(=O)N(C(=O)N[C@@H](C)c2ccccc2)[C@@H]1Oc1ccc(C(=O)N2CCN(C)CC2)cc1 [Compound I-134],0.1
15,C[C@@H](NC(=O)N1C(=O)[C@@H](Cc2ccccc2)[C@H]1Oc1ccc(C(=O)OCc2ccncc2)cc1)c1ccccc1 [Compound I-75],1.2
16,COc1ccccc1C[C@@H]1C(=O)N(C(=O)N[C@@H](C)c2ccccc2)[C@@H]1Oc1ccc(C(=O)N2CCN(C)CC2)cc1 [Compound I-132],0.25
17,COc1ccccc1C[C@@H]1C(=O)N(C(=O)N[C@H](C)c2ccccc2)[C@H]1Oc1ccc(C(=O)O)cc1 [Compound I-102],1
18,C[C@@H](NC(=O)N1C(=O)[C@@H](Cc2ccccc2)[C@H]1Oc1ccc(C(=O)N2CCN(Cc3ccc4c(c3)OCO4)CC2)cc1)c1ccccc1 [Compound I-76],2.4
19,C[C@@H](NC(=O)N1C(=O)[C@@H](Cc2ccccc2)[C@@H]1Oc1ccc(C(=O)OCCN(C)C)cc1)c1ccccc1 [Compound I-47],3
20,CCOc1ccccc1C[C@@H]1C(=O)N(C(=O)NC(c2ccccc2)c2ccccc2)[C@H]1Oc1ccc(C(=O)O)c(C(=O)O)c1 [Compound I-152],4.1
21,CCOc1ccccc1C[C@@H]1C(=O)N(C(=O)NC(c2ccc(F)cc2)c2ccc(F)cc2)[C@H]1Oc1ccc(C(=O)O)cc1 [Compound I-159],14.5
22,CCOc1ccccc1C[C@@H]1C(=O)N(C(=O)N[C@H](CC)c2ccccc2)[C@H]1Oc1ccc(C(=O)N2CCN(C3CCCCC3)CC2)cc1 [Compound I-137],3.4

# Further compounds by falling IC50, results first:
row,IC50 [nM],SMILES
1,30,C[C@@H](NC(=O)N1C(=O)[C@@H](Cc2ccccc2)[C@@H]1Oc1ccc(CC(=O)OCCN(C)C)cc1)c1ccccc1 [Compound I-51]
2,19,CC(OC(=O)c1ccc(O[C@@H]2[C@H](Cc3ccccc3)C(=O)N2C(=O)N[C@H](C)c2ccccc2)cc1)c1ccccc1 (stereo partly shown) [Compound I-71]
3,18,CCCc1ccccc1C[C@@H]1C(=O)N(C(=O)NC(c2ccccc2)c2ccccc2)[C@H]1Oc1ccc(C(=O)O)cc1 [Compound I-161]
4,16,CC(NC(=O)N1C(=O)[C@@H](Cc2ccccc2)[C@@H]1Oc1ccc(C(N)=O)cc1)c1ccccc1 (stereo partly shown) [Compound I-95]
5,13,C[C@H](NC(=O)N1C(=O)[C@@H](Cc2ccccc2)[C@H]1Oc1ccc(C(=O)N2CCN(C)CC2)cc1)c1ccccc1 [Compound I-81]
6,11,COc1ccccc1C[C@@H]1C(=O)N(C(=O)N[C@@H](C)c2ccccc2)[C@H]1Oc1ccc(C(=O)N2CCN(C)CC2)cc1 [Compound I-111]
7,10.8,CCOc1ccccc1C[C@@H]1C(=O)N(C(=O)NC(c2ccccc2)c2ccccc2)[C@H]1Oc1ccc(C(=O)N2CCN(C3CCCCC3)CC2)cc1 [Compound I-145]
8,8.6,C[C@@H](NC(=O)N1C(=O)[C@@H](Cc2ccccc2)[C@H]1Oc1ccc(C(=O)N[C@@H](Cc2ccccc2)C(=O)OCc2ccccc2)cc1)c1ccccc1 [Compound I-74]
9,5.7,C[C@@H](NC(=O)N1C(=O)[C@@H](Cc2ccccc2)[C@@H]1Sc1ccc(C(=O)N2CCN(C)CC2)cc1)c1ccccc1 [Compound I-58]
10,4.6,CCOc1ccccc1C[C@@H]1C(=O)N(C(=O)NC(c2ccccc2)c2ccccc2)[C@H]1Oc1ccc(C(=O)NS(=O)(=O)c2ccccc2)cc1 [Compound I-151]
11,4.2,CC(=O)O[C@H]1[C@H](Cc2ccccc2)C(=O)N1C(=O)NC(C)c1ccccc1 (stereo partly shown) [Compound I-36]
12,3.8,C=CCNC(=O)c1ccc(O[C@H]2[C@H](Cc3ccccc3)C(=O)N2C(=O)N[C@H](C)c2ccccc2)cc1 [Compound I-44]
13,3.5,C[C@@H](NC(=O)N1C(=O)[C@@H](Cc2ccccc2)[C@@H]1Oc1ccc(/C=C/C(=O)N2CCN(C)CC2)cc1)c1ccccc1 [Compound I-54]
14,2.8,COc1ccccc1C[C@@H]1C(=O)N(C(=O)N[C@H](C)c2ccccc2)[C@H]1Oc1ccc(C(=O)OCc2ccncc2)cc1 [Compound I-105]
15,2.5,CCOc1ccccc1C[C@@H]1C(=O)N(C(=O)NC(c2ccccc2)c2ccccc2)[C@H]1Oc1ccc(CC(=O)O)cc1 [Compound I-154]
16,2.1,CCOc1ccccc1C[C@@H]1C(=O)N(C(=O)N[C@H](CC)c2ccccc2)[C@H]1Oc1ccc(C(=O)O)cc1 [Compound I-135]
17,1.08,C[C@@H](NC(=O)N1C(=O)[C@@H](Cc2ccccc2)[C@@H]1Oc1ccc(C(=O)N2CCOCC2)cc1)c1ccccc1 [Compound I-43]
18,0.92,C[C@@H](NC(=O)N1C(=O)[C@@H](Cc2ccccc2)[C@H]1Oc1ccc(C(=O)NNc2ccccc2)cc1)c1ccccc1 [Compound I-73]
19,0.48,COc1ccccc1C[C@@H]1C(=O)N(C(=O)N[C@H](C)c2ccccc2)[C@H]1Oc1ccc(C(=O)N2CCN(C3CCCCC3)CC2)cc1 [Compound I-108]
20,0.19,COc1ccccc1C[C@@H]1C(=O)N(C(=O)N[C@H](C)c2ccccc2)[C@H]1Oc1ccc(C(=O)N2CCN(C)CC2)cc1 [Compound I-104]
21,0.18,C[C@@H](NC(=O)N1C(=O)[C@@H](Cc2ccccc2)[C@H]1Oc1ccc(C(=O)N2CCOCC2)cc1)c1ccccc1 [Compound I-67]
